The values that follow come from patent publication US20150299188A1, “HETEROCYCLIC COMPOUND” (priority 2012, published 2015).

The experiment deals with FLAP (5-lipoxygenase activating protein). The experiment can be described thus: In vitro binding test: displacement of [3H]-7-chloro-3-(5-((3-fluoropyridin-2-yl)methoxy)-2-methylphenyl)-3,4-dihydroquinazolin-2(1H)-one from Sf9 microsome fractions. Set-up: species or system human and mouse. The conditions noted are these: Sf9 microsome fractions expressing FLAP; 100% = radioligand binding with 10 μM sodium 3-(3-(tert-butylsulfanyl)-1-(4-chlorobenzyl)-5-isopropyl-1H-indol-2-yl)-2,2-dimethylpropanoate, 0% = DMSO; test compound concentration not given. Here is the method: As an assay buffer, 100 mM Tris-HCl, pH 7.5, 140 mM NaCl, 2 mM EDTA, 0.5 mM dithiothreitol, 5% glycerol, 0.05% Tween20 was used. Sf9 microsome fractions expressing human and mouse FLAPs were dispensed by 50 μL to a 96-well plate at 2 μg/mL. Furthermore, a test compound (25 μL) diluted 4-fold of the final concentration with the assay buffer was added and mixed therewith, and the mixture was incubated at room temperature for 10 min. Furthermore, 120 nM [^3H]-7-chloro-3-(5-((3-fluoropyridin-2-yl)methoxy)-2-methylphenyl)-3,4-dihydroquinazolin-2(1H)-one was added by 25 μL, and mixed therewith, and the mixture was incubated at room temperature for 60 min. Thereafter, the cells were transferred to a 96-well GF/B Unifilter plate with a FilterMate cell harvester, and washed 3 times with a wash buffer (100 mM Tris-HCl pH 7.5, 0.05% Tween20, 200 μL) cooled to 4° C. The GF/B Unifilter plate was dried at 37° C., Microscint 0 was added and measured by TopCount NXT (PerkinElmer). As for the inhibitory activity, the inhibitory rate was calculated wherein the [^3H]-7-chloro-3-(5-((3-fluoropyridin-2-yl)methoxy)-2-methylphenyl)-3,4-dihydroquinazolin-2(1H)-one binding amount in the presence of 10 μM sodium 3-(3-(tert-butylsulfanyl)-1-(4-chlorobenzyl)-5-isopropyl-1H-indol-2-yl)-2,2-dimethylpropanoate was 100%, and the [^3H]-7-chloro-3-(5-((3-fluoropyridin-2-yl)methoxy)-2-methylphenyl)-3,4-dihydroquinazolin-2(1H)-one binding amount in the presence of DMSO was 0%.
On the technique in general: Loss of bound radioactivity is the signal in a displacement assay; it reports binding, not function.
`Cc1cc2c(cc1N1Cc3c(ccnc3C3CC3)NC1=O)OC(c1ncccc1F)CC2` (stereo not drawn) [Example 25, 5-cyclopropyl-3-(2-(3-fluoropyridin-2-yl)-6-methyl-3,4-dihydro-2H-chromen-7-yl)-3,4-dihydropyrido[4,3-d]pyrimidin-2(1H)-one]: the “inhibitory rate (%)” value was determined as 99%.

Regarding `Cc1cc2c(cc1N1Cc3c(cncc3C3CC3)NC1=O)OC(c1ncccc1F)CC2` (stereo not drawn) [Example 26, 5-cyclopropyl-3-(2-(3-fluoropyridin-2-yl)-6-methyl-3,4-dihydro-2H-chromen-7-yl)-3,4-dihydropyrido[3,4-d]pyrimidin-2(1H)-one], the “inhibitory rate (%)” value is recorded as 101%.

Consider `CCc1nccc2c1CN(c1cc3c(cc1C)CCC(c1ncccc1F)O3)C(=O)N2` (stereo not drawn) [Example 27, 5-ethyl-3-(2-(3-fluoropyridin-2-yl)-6-methyl-3,4-dihydro-2H-chromen-7-yl)-3,4-dihydropyrido[4,3-d]pyrimidin-2(1H)-one], for which the “inhibitory rate (%)” value is given as 82%.

Consider `O=C1Nc2ccnc(Cl)c2CN1c1ccc2c(c1)OC(c1ncccc1F)CC2` (stereo not drawn) [Example 28, 5-chloro-3-(2-(3-fluoropyridin-2-yl)-3,4-dihydro-2H-chromen-7-yl)-3,4-dihydropyrido[4,3-d]pyrimidin-2(1H)-one], for which the “inhibitory rate (%)” value was 98%.

In the case of `Cc1cc2c(cc1N1Cc3cnccc3NC1=O)OC(c1ncccc1F)CC2` (stereo not drawn) [Example 29, 3-(2-(3-fluoropyridin-2-yl)-6-methyl-3,4-dihydro-2H-chromen-7-yl)-3,4-dihydropyrido[4,3-d]pyrimidin-2(1H)-one], the “inhibitory rate (%)” value was 99%.

As to `CCOC(=O)c1nccc2c1CN(c1cc3c(cc1C)CCC(c1ncccc1F)O3)C(=O)N2` (stereo not drawn) [Example 30, ethyl 3-(2-(3-fluoropyridin-2-yl)-6-methyl-3,4-dihydro-2H-chromen-7-yl)-2-oxo-1,2,3,4-tetrahydropyrido[4,3-d]pyrimidine-5-carboxylate], the “inhibitory rate (%)” value stood at 105%.

Take `Cc1cc2c(cc1N1Cc3c(ccnc3C(=O)NC3CC3)NC1=O)OC(c1ncccc1F)CC2` (stereo not drawn) [Example 32, N-cyclopropyl-3-(2-(3-fluoropyridin-2-yl)-6-methyl-3,4-dihydro-2H-chromen-7-yl)-2-oxo-1,2,3,4-tetrahydropyrido[4,3-d]pyrimidine-5-carboxamide]: the “inhibitory rate (%)” value is on record as 101%.

As to `Cc1cc2c(cc1N1Cc3c(ccnc3C(C)(C)O)NC1=O)OC(c1ncccc1F)CC2` (stereo not drawn) [Example 33, 3-(2-(3-fluoropyridin-2-yl)-6-methyl-3,4-dihydro-2H-chromen-7-yl)-5-(2-hydroxypropan-2-yl)-3,4-dihydropyrido[4,3-d]pyrimidin-2(1H)-one], the “inhibitory rate (%)” value is listed as 106%.

Turning to `CC(=O)c1nccc2c1CN(c1cc3c(cc1C)CCC(c1ncccc1F)O3)C(=O)N2` (stereo not drawn) [Example 34, 5-acetyl-3-(2-(3-fluoropyridin-2-yl)-6-methyl-3,4-dihydro-2H-chromen-7-yl)-3,4-dihydropyrido[4,3-d]pyrimidin-2(1H)-one], the “inhibitory rate (%)” value came out at 111%.

On to `O=C1Nc2ccnc(Cl)c2CN1c1cc2c(cc1C(F)(F)F)CCC(c1ncccc1F)O2` (stereo not drawn) [Example 35, 5-chloro-3-(2-(3-fluoropyridin-2-yl)-6-(trifluoromethyl)-3,4-dihydro-2H-chromen-7-yl)-3,4-dihydropyrido[4,3-d]pyrimidin-2(1H)-one], for which the “inhibitory rate (%)” value is listed as 93%.

For the molecule `Cc1cc2c(cc1N1Cc3c(Cl)ccnc3NC1=O)OC(c1ncccc1F)CC2` (stereo not drawn) [Example 36, 5-chloro-3-(2-(3-fluoropyridin-2-yl)-6-methyl-3,4-dihydro-2H-chromen-7-yl)-3,4-dihydropyrido[2,3-d]pyrimidin-2(1H)-one], the “inhibitory rate (%)” value is on record as 115%.

As for `Cc1cc2c(cc1N1Cc3c(Cl)ncnc3NC1=O)OC(c1ncccc1F)CC2` (stereo not drawn) [Example 37, 5-chloro-3-(2-(3-fluoropyridin-2-yl)-6-methyl-3,4-dihydro-2H-chromen-7-yl)-3,4-dihydropyrimido[4,5-d]pyrimidin-2(1H)-one], the “inhibitory rate (%)” value was found to be 107%.

On to `Cc1cc2c(cc1N1Cc3cn(CC(F)(F)F)c(=O)cc3NC1=O)OC(c1ncccc1F)CC2` (stereo not drawn) [Example 38, 3-(2-(3-fluoropyridin-2-yl)-6-methyl-3,4-dihydro-2H-chromen-7-yl)-6-(2,2,2-trifluoroethyl)-4,6-dihydropyrido[4,3-d]pyrimidine-2,7(1H,3H)-dione], for which the “inhibitory rate (%)” value stood at 104%.

For the molecule `O=C1Nc2ccnc(C3CC3)c2CN1c1cc2c(cc1Cl)CCC(c1ncccc1F)O2` (stereo not drawn) [Example 39, 3-(6-chloro-2-(3-fluoropyridin-2-yl)-3,4-dihydro-2H-chromen-7-yl)-5-cyclopropyl-3,4-dihydropyrido[4,3-d]pyrimidin-2(1H)-one], the “inhibitory rate (%)” value came out at 94%.

Regarding `Cc1cc2c(cc1N1Cc3cccnc3NC1=O)OC(c1ncccc1F)CC2` (stereo not drawn) [Example 40, 3-(2-(3-fluoropyridin-2-yl)-6-methyl-3,4-dihydro-2H-chromen-7-yl)-3,4-dihydropyrido[2,3-d]pyrimidin-2(1H)-one], the “inhibitory rate (%)” value amounted to 108%.

Consider `Cc1cc2c(cc1N1Cc3c(cc(Cl)nc3Cl)NC1=O)OC(c1ncccc1F)CC2` (stereo not drawn) [Example 41, 5,7-dichloro-3-(2-(3-fluoropyridin-2-yl)-6-methyl-3,4-dihydro-2H-chromen-7-yl)-3,4-dihydropyrido[4,3-d]pyrimidin-2(1H)-one], for which the “inhibitory rate (%)” value is 108%.

For `Cc1cc2c(cc1N1Cc3c(cc(C4COC4)nc3C3CC3)NC1=O)OC(c1ncccc1F)CC2` (stereo not drawn) [Example 42, 5-cyclopropyl-3-(2-(3-fluoropyridin-2-yl)-6-methyl-3,4-dihydro-2H-chromen-7-yl)-7-(oxetan-3-yl)-3,4-dihydropyrido[4,3-d]pyrimidin-2(1H)-one], the “inhibitory rate (%)” value was found to be 116%.

As for `Cc1cc2c(cc1N1Cc3cc(Cl)ncc3NC1=O)OC(c1ncccc1F)CC2` (stereo not drawn) [Example 43, 6-chloro-3-(2-(3-fluoropyridin-2-yl)-6-methyl-3,4-dihydro-2H-chromen-7-yl)-3,4-dihydropyrido[3,4-d]pyrimidin-2 (1H)-one], the “inhibitory rate (%)” value was determined as 107%.

In the case of `Cc1cc2c(cc1N1Cc3ncccc3NC1=O)OC(c1ncccc1F)CC2` (stereo not drawn) [Example 45, 3-(2-(3-fluoropyridin-2-yl)-6-methyl-3,4-dihydro-2H-chromen-7-yl)-3,4-dihydropyrido[3,2-d]pyrimidin-2(1H)-one], the “inhibitory rate (%)” value is on record as 99%.

With `Cc1cc2c(cc1N1Cc3c(ccnc3-c3ncco3)NC1=O)OC(c1ncccc1F)CC2` (stereo not drawn) [Example 46, 3-(2-(3-fluoropyridin-2-yl)-6-methyl-3,4-dihydro-2H-chromen-7-yl)-5-(1,3-oxazol-2-yl)-3,4-dihydropyrido[4,3-d]pyrimidin-2(1H)-one], the “inhibitory rate (%)” value is 104%.

`Cc1cc2c(cc1N1Cc3cnc(Cl)cc3NC1=O)OC(c1ncccc1F)CC2` (stereo not drawn) [Example 47, 7-chloro-3-(2-(3-fluoropyridin-2-yl)-6-methyl-3,4-dihydro-2H-chromen-7-yl)-3,4-dihydropyrido[4,3-d]pyrimidin-2(1H)-one]: the “inhibitory rate (%)” value was determined as 114%.

In the case of `Cc1cc2c(cc1N1Cc3cc(Cl)cnc3NC1=O)OC(c1ncccc1F)CC2` (stereo not drawn) [Example 48, 6-chloro-3-(2-(3-fluoropyridin-2-yl)-6-methyl-3,4-dihydro-2H-chromen-7-yl)-3,4-dihydropyrido[2,3-d]pyrimidin-2(1H)-one], the “inhibitory rate (%)” value was found to be 105%.

Consider `Cc1cc2c(cc1N1Cc3c(cc(C4CN(C(=O)n5ccnc5)C4)nc3C3CC3)NC1=O)OC(c1ncccc1F)CC2` (stereo not drawn) [Example 49, 5-cyclopropyl-3-(2-(3-fluoropyridin-2-yl)-6-methyl-3,4-dihydro-2H-chromen-7-yl)-7-(1-(1H-imidazol-1-ylcarbonyl)azetidin-3-yl)-3,4-dihydropyrido[4,3-d]pyrimidin-2(1H)-one], for which the “inhibitory rate (%)” value was 120%.

Take `Cc1cc2c(cc1N1Cc3c(C4CC4)ccnc3NC1=O)OC(c1ncccc1F)CC2` (stereo not drawn) [Example 50, 5-cyclopropyl-3-(2-(3-fluoropyridin-2-yl)-6-methyl-3,4-dihydro-2H-chromen-7-yl)-3,4-dihydropyrido[2,3-d]pyrimidin-2(1H)-one]: the “inhibitory rate (%)” value is on record as 67%.

Turning to `Cc1cc2c(cc1N1Cc3c(ccnc3Cl)NC1=O)OC(c1ccccn1)CC2` (stereo not drawn) [Example 51, 5-chloro-3-(6-methyl-2-(pyridin-2-yl)-3,4-dihydro-2H-chromen-7-yl)-3,4-dihydropyrido[4,3-d]pyrimidin-2(1H)-one], the “inhibitory rate (%)” value stood at 105%.

Consider `Cc1cc2c(cc1N1Cc3c(cc(C4CC4)nc3C3CC3)NC1=O)OC(c1ncccc1F)CC2` (stereo not drawn) [Example 52, 5,7-dicyclopropyl-3-(2-(3-fluoropyridin-2-yl)-6-methyl-3,4-dihydro-2H-chromen-7-yl)-3,4-dihydropyrido[4,3-d]pyrimidin-2(1H)-one], for which the “inhibitory rate (%)” value is 115%.

As to `O=C1Nc2c(Cl)cnc(Cl)c2CN1c1cc2c(cc1Cl)CCC(c1ncccc1F)O2` (stereo not drawn) [Example 53, 5,8-dichloro-3-(6-chloro-2-(3-fluoropyridin-2-yl)-3,4-dihydro-2H-chromen-7-yl)-3,4-dihydropyrido[4,3-d]pyrimidin-2(1H)-one], the “inhibitory rate (%)” value stood at 103%.
